Assay type in all cases: in vivo
Test [1] has as its system Polygonum convolvulus (POLCO). In words: Herbicidal pre-emergence action, section C (Table C7). The following applies: visual grading after ca. 3 weeks; for pest or weed control at 80 g/ha / pest or weed control at 320 g/ha: Fallopia convolvulus, pre-emergence, 504 h, read-out: pre-emergence activity against POLCO in %; for pest or weed control at 80 g/ha: application rate 80 g/ha. The source says: (§1) Seeds of mono- and dicotyledonous weed plants and crop plants were sown, in plastic or organic planting pots, in sandy loam and covered with soil. The compounds according to the invention, formulated in the form of wettable powders (WP) or as emulsifiable concentrates (EC), were applied to the surface of the covering soil as aqueous suspension or emulsion, with the addition of 0.5% of an additive, at an application rate of 600 l of water/ha (converted). Following treatment, the pots were placed in a greenhouse and kept under optimum growth conditions for the test plants. The visual grading of the damage to the test plants was carried out after ca. 3 weeks in comparison to untreated controls (herbicidal effect in percent (%): 100% effect=plants have died off, 0% effect=as control plants).

The next test deals with Setaria viridis (SETVI). In words: Herbicidal pre-emergence action, section C (Table C8). The settings on record: visual grading after ca. 3 weeks; for pest or weed control at 80 g/ha / pest or weed control at 320 g/ha: Setaria viridis, pre-emergence, 504 h, read-out: pre-emergence activity against SETVI in %; for pest or weed control at 80 g/ha / pre-emergence activity against SETVI in %: application rate 80 g/ha; for pest or weed control at 320 g/ha: application rate 320 g/ha. The essentials: (§2)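 Pre-emergence greenhouse test: visual percent damage scored about 3 weeks after treatment, relative to untreated pots (100% = dead, 0% = no effect). Formulated compounds (WP or EC, plus 0.5% additive) were applied in 600 l water/ha to the covering soil over seeds sown in sandy loam.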

The test system of test [2] is Amaranthus retroflexus (AMARE). In words: Herbicidal pre-emergence action, section C (Table C11). The settings on record: visual grading after ca. 3 weeks; for pest or weed control at 80 g/ha: application rate 80 g/ha. The gist of the method:
as §2

Test [3] relates to Alopecurus myosuroides (ALOMY). As to the kind of experiment: Herbicidal pre-emergence action, section A (Table A2). The following applies: application rate 1280 g/ha, visual grading after ca. 3 weeks vs untreated controls; for pest or weed control at 1280 g/ha: Alopecurus myosuroides, pre-emergence, 504 h, read-out: pre-emergence activity against ALOMY in %. The gist of the method: (§3)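 Percent herbicidal effect relative to untreated plants (0% = as control, 100% = died off) scored visually about 3 weeks after treatment. Compounds formulated as WP or EC were sprayed at 600 L/ha with 0.5% additive onto covering soil of freshly sown sandy-loam pots, then kept under greenhouse conditions.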

Test [4] has as its system Echinochloa crus-galli (ECHCG). In words: Herbicidal post-emergence action, section B (Table B3). The settings on record: rated visually after about 3 weeks. The essentials:
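Percent effect, judged by eye against untreated controls (0% = like control, 100% = plants dead), was recorded about 3 weeks after a foliar spray. The spray, at 600 liters per hectare with 0.5% additive, was applied to one-leaf-stage plants grown in sandy loam.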

The test system of test [5] is Alopecurus myosuroides (ALOMY). In words: Herbicidal pre-emergence action, section C (Table C2). The following applies: visual grading after ca. 3 weeks vs untreated controls; for pest or weed control at 80 g/ha / pest or weed control at 320 g/ha: Alopecurus myosuroides, pre-emergence, 504 h, read-out: pre-emergence activity against ALOMY in %; for pest or weed control at 80 g/ha: application rate 80 g/ha; for pest or weed control at 320 g/ha / pre-emergence activity against ALOMY in %: application rate 320 g/ha.
Text: as §1

A further test has as its system Kochia scoparia (KCHSC). As to the kind of experiment: Herbicidal pre-emergence action, section A (Table A4). The settings on record: visual grading after ca. 3 weeks vs untreated controls; for pest or weed control at 1280 g/ha / pest or weed control at 320 g/ha: Bassia scoparia, pre-emergence, 504 h, read-out: pre-emergence activity against KCHSC in %; for pest or weed control at 1280 g/ha / pre-emergence activity against KCHSC in %: application rate 1280 g/ha; for pest or weed control at 320 g/ha: application rate 320 g/ha. The gist of the method: as §3

For test [6], the system named is Digitaria sanguinalis (DIGSA). As to the kind of experiment: Herbicidal pre-emergence action, section C (Table C12). The settings on record: visual grading after ca. 3 weeks; for pest or weed control at 80 g/ha / pest or weed control at 320 g/ha: Digitaria sanguinalis, pre-emergence, 504 h, read-out: pre-emergence activity against DIGSA in %; for pest or weed control at 80 g/ha: application rate 80 g/ha; for pest or weed control at 320 g/ha / pre-emergence activity against DIGSA in %: application rate 320 g/ha. The gist of the method: as §2

In a further test the test system is Veronica persica (VERPE). As to the kind of experiment: Herbicidal pre-emergence action, section A (Table A10). The following applies: for pest or weed control at 1280 g/ha / pest or weed control at 320 g/ha: Veronica persica, 504 h, read-out: pre-emergence activity against VERPE in %; for pest or weed control at 1280 g/ha / pre-emergence activity against VERPE in %: application rate 1280 g/ha; for pest or weed control at 320 g/ha: application rate 320 g/ha. The essentials: as §3

For test [7], the system named is Triticum aestivum (TRZAS). As to the kind of experiment: Post-emergence effects on crop plants, section F (Table F2). The following applies: for percent crop plant damage (wheat, post-emergence) at 80 g/ha / percent crop plant damage (wheat, post-emergence) at 320 g/ha: Triticum aestivum, 504 h, read-out: post-emergence activity against TRZAS in %; for post-emergence activity against TRZAS in %: crop plant damage. The essentials:
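Percent damage was rated by eye roughly 3 weeks after treatment against untreated plants, where 0% = as control and 100% = died off. Spraying used WP or EC formulations plus 0.5% additive at 600 l water/ha, with rates of 320 g/ha or less. Plants were at the single-leaf stage, sown 2-3 weeks earlier in sandy loam under greenhouse conditions.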

Setting [8] is: Echinochloa crus-galli, 504 h, application rate 1280 g/ha, read-out: post-emergence activity against ECHCG in %.
The mark [9] stands for this setting: Amaranthus retroflexus, pre-emergence, 504 h, read-out: pre-emergence activity against AMARE in %.

The structures appear in SMILES notation.

With `CCS(=O)(=O)N1CSc2cc(C)c(-c3ccccc3F)nc21` [Example I-060, 3-(ethylsulfonyl)-5-(2-fluorophenyl)-6-methyl-2,3-dihydro[1,3]thiazolo[4,5-b]pyridine], the pest or weed control at 80 g/ha was determined as 80% in test [1], 100% with Setaria viridis (SETVI), 100% in [5] and 100% in test [6]. Moreover, the pest or weed control at 320 g/ha in test [2] (Amaranthus retroflexus, pre-emergence, 504 h, application rate 320 g/ha, read-out: pre-emergence activity against AMARE in %) stood at 90%. Besides, the pest or weed control at 1280 g/ha in test [3] was found to be 90%; in test [4] (setting [8]), 90%; in the test on Kochia scoparia (KCHSC), 100%; in the test with Veronica persica (VERPE), 90%. Besides, the percent crop plant damage (wheat, post-emergence) at 80 g/ha in test [7] (application rate 80 g/ha) was determined as 0%.

In the case of `CC(C)C(=O)N1C[S+]([O-])c2cc(Br)c(-c3ccccc3)nc21` (stereo not drawn) [Example I-067], the pest or weed control at 80 g/ha in test [1] came to 90%; in test [2] (setting [9]), 80%. In addition, the pest or weed control at 320 g/ha in the test on Setaria viridis (SETVI) came to 100%; in [5] it was 90%; in [6], 100%. In addition, the percent crop plant damage (wheat, post-emergence) at 320 g/ha in test [7] (application rate 320 g/ha) was determined as 0%.

With `CC(=O)N1CSc2cc(Br)c(-c3ccccc3Cl)nc21` [Example I-055, 1-[6-bromo-5-(2-chlorophenyl)[1,3]thiazolo[4,5-b]pyridin-3(2H)-yl]ethanone], the pest or weed control at 320 g/ha in test [1] (application rate 320 g/ha) was determined as 80%; with Setaria viridis (SETVI), 100%; in test [5], 80%; with Kochia scoparia (KCHSC), 90%; in the test on Veronica persica (VERPE) it was 90%. In addition, the pest or weed control at 80 g/ha in test [2] (setting [9]) and in [6] was 90% in each case. Also, the pest or weed control at 1280 g/ha in [3] and in test [4] (setting [8]) was 90% each time. Further, in test [7] (application rate 320 g/ha), the percent crop plant damage (wheat, post-emergence) at 320 g/ha amounted to 0%.

For the compound `BN1CSc2cc(Br)c(-c3ccccc3C)nc21` [Example I-011], the “pre-emergence activity against SETVI in %” value with Setaria viridis (SETVI) is given as 100%. The “post-emergence activity against ECHCG in %” value in test [4] (application rate 1280 g/ha) is given as 90%. The “pre-emergence activity against ALOMY in %” value in [5] is listed as 90%. Besides, in the test on Kochia scoparia (KCHSC), the “pre-emergence activity against KCHSC in %” value stood at 90%. In addition, the “pre-emergence activity against DIGSA in %” value in test [6] stood at 100%. Besides, in the test with Veronica persica (VERPE), the “pre-emergence activity against VERPE in %” value is listed as 90%. Moreover, the “post-emergence activity against TRZAS in %” value in [7] (application rate 80 g/ha) was 0%.

`CCS(=O)(=O)N1C[S+]([O-])c2cc(C)c(-c3ccccc3C)nc21` (stereo not drawn) [Example I-074]: the pest or weed control at 320 g/ha in [1] (application rate 320 g/ha) was found to be 90%; in the test on Setaria viridis (SETVI), 100%; in [6], 100%; in the test with Veronica persica (VERPE) it was 90%. The pest or weed control at 80 g/ha in test [2] (setting [9]) was found to be 90%; in test [5], 80%. Further, the pest or weed control at 1280 g/ha in test [3] worked out at 90%; in the test on Kochia scoparia (KCHSC) it was 100%. In addition, the percent crop plant damage (wheat, post-emergence) at 80 g/ha in [7] (application rate 80 g/ha) was found to be 0%.

On to `CCc1ccccc1-c1nc2c(cc1C)[S+]([O-])CN2` (stereo not drawn) [Example I-047], for which the pest or weed control at 320 g/ha in test [1] (application rate 320 g/ha) was 80%; in the test with Setaria viridis (SETVI), 100%. Besides, the pest or weed control at 80 g/ha in test [2] (setting [9]) and in [6] was 90% in each case. Further, the pest or weed control at 1280 g/ha in [4] (setting [8]) worked out at 90%. Besides, the percent crop plant damage (wheat, post-emergence) at 320 g/ha in test [7] (application rate 320 g/ha) turned out to be 0%.

Consider `Clc1ccccc1-c1nc2c(cc1Br)SCN2` [Example I-041, 6-bromo-5-(2-chlorophenyl)-2,3-dihydro[1,3]thiazolo[4,5-b]pyridine], for which the pest or weed control at 80 g/ha in [1] was determined as 80%; in the test on Setaria viridis (SETVI), 90%; in [2] (setting [9]), 90%. Moreover, in test [3], the pest or weed control at 1280 g/ha was found to be 90%. Further, the pest or weed control at 320 g/ha in test [4] (Echinochloa crus-galli, 504 h, application rate 320 g/ha, read-out: post-emergence activity against ECHCG in %) worked out at 100%; in test [5] it was 80%; with Kochia scoparia (KCHSC), 90%; in [6], 100%; with Veronica persica (VERPE) it was 90%. For the same compound, the percent crop plant damage (wheat, post-emergence) at 320 g/ha in [7] (application rate 320 g/ha) worked out at 0%.

On to `Cc1cc2c(nc1-c1ccccc1)N(C(=O)C1(C)CC(Cl)=NO1)CS2` (stereo not drawn) [Example I-088], for which the “pre-emergence activity against POLCO in %” value in test [1] (application rate 320 g/ha) is listed as 90%. Moreover, the “pre-emergence activity against SETVI in %” value in the test on Setaria viridis (SETVI) is 100%. Further, in test [2] (application rate 320 g/ha), the “pre-emergence activity against AMARE in %” value was determined as 90%. The “pre-emergence activity against ALOMY in %” value in test [3] was 100%; in [5], 90%. Besides, the “post-emergence activity against ECHCG in %” value in [4] (application rate 320 g/ha) turned out to be 90%. In the test on Kochia scoparia (KCHSC), the “pre-emergence activity against KCHSC in %” value is listed as 90%. Besides, the “pre-emergence activity against DIGSA in %” value in test [6] came out at 100%. Also, the “pre-emergence activity against VERPE in %” value with Veronica persica (VERPE) amounted to 90%. The “post-emergence activity against TRZAS in %” value in test [7] (application rate 320 g/ha) was determined as 20%.

Regarding `CC1(C(=O)N2CSc3cc(Br)c(-c4ccccc4Cl)nc32)CC(Cl)=NO1` (stereo not drawn) [Example I-141, [6-bromo-5-(2-chlorophenyl)[1,3]thiazolo[4,5-b]pyridin-3(2H)-yl](3-chloro-5-methyl-4,5-dihydro-1,2-oxazol-5-yl)methanone], the pest or weed control at 320 g/ha in test [1] (application rate 320 g/ha) stood at 80%; in the test with Setaria viridis (SETVI) it was 100%; in test [5], 80%; in test [6], 90%. Also, in test [2] (setting [9]), the pest or weed control at 80 g/ha was found to be 100%. The pest or weed control at 1280 g/ha amounted to 90% in [3], 90% in [4] (setting [8]), 100% with Kochia scoparia (KCHSC) and 90% in the test on Veronica persica (VERPE). Moreover, the percent crop plant damage (wheat, post-emergence) at 320 g/ha in test [7] (application rate 320 g/ha) was 0%.
